Results as given in patent US20100242139A1, “XENOHORMESIS BASED COMPOSITIONS AND METHODS” (President and Fellows of Harvard College, priority 2006, published 2010).

Columns and labels:
Type in all cases: biochemical
PAK6(h) = PAK6(h) (Homo sapiens, UniProt Q9NQU5); test: kinase panel activity, PAK6(h); conditions: compound at 20 μM; vs reference with no compound
PKBβ(h) = PKBβ(h) (Homo sapiens, UniProt P31751); test: kinase panel activity, PKBβ(h)
DAPK1(h) = DAPK1(h) (Homo sapiens, UniProt P53355); test: kinase panel activity, DAPK1(h); conditions: compound at 20 μM; vs reference with no compound
CDK5/p35(h) = CDK5/p35(h) (Homo sapiens, UniProt Q00535); test: kinase panel activity, CDK5/p35(h); conditions: compound at 20 μM; vs reference with no compound
CDK5/p35(h), sequence (Q00535 whole entry): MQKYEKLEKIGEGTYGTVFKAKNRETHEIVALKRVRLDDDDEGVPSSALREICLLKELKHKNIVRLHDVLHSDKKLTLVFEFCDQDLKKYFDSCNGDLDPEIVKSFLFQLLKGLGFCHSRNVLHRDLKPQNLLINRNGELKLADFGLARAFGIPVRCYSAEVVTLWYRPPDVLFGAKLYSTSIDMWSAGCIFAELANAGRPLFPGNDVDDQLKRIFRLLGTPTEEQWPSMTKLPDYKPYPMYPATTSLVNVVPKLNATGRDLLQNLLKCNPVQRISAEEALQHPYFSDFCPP
CDK5/p35(h), sequence (Q15078 whole entry partner): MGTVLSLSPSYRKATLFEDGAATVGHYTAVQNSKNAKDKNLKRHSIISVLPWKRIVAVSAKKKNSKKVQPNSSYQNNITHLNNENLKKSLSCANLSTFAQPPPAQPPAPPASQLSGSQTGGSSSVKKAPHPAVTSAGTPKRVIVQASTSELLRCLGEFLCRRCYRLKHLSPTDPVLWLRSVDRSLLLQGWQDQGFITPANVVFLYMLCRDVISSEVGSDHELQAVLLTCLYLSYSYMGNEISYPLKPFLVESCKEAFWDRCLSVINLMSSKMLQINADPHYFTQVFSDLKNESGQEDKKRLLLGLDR

MEK1(h) = MEK1(h) (Homo sapiens, UniProt Q02750); test: kinase panel activity, MEK1(h); conditions: compound at 20 μM; vs reference with no compound
SAPK2b(h) = SAPK2b(h) (Homo sapiens, UniProt Q15759); test: kinase panel activity, SAPK2b(h); conditions: compound at 20 μM; vs reference with no compound
MST1(h) = MST1(h) (Homo sapiens, UniProt Q13043); test: kinase panel activity, MST1(h); conditions: compound at 20 μM; vs reference with no compound
SIK(h) = SIK(h) (Homo sapiens, UniProt P57059); test: kinase panel activity, SIK(h); conditions: compound at 20 μM; vs reference with no compound
CDK3/cyclinE(h) = CDK3/cyclinE(h) (Homo sapiens, UniProt Q00526); test: kinase panel activity, CDK3/cyclinE(h); conditions: compound at 20 μM; vs reference with no compound
GSK3α(h) = GSK3α(h) (Homo sapiens, UniProt P49840); test: kinase panel activity, GSK3α(h); conditions: compound at 20 μM; vs reference with no compound
CDK2/cyclinA(h) = CDK2/cyclinA(h) (Homo sapiens, UniProt P24941); test: kinase panel activity, CDK2/cyclinA(h); conditions: compound at 20 μM; vs reference with no compound
JNK3(h) = JNK3(h) (Homo sapiens, UniProt P53779); test: kinase panel activity, JNK3(h); conditions: compound at 20 μM; vs reference with no compound
CSK(h) = CSK(h) (Homo sapiens, UniProt P41240); test: kinase panel activity, CSK(h); conditions: compound at 20 μM; vs reference with no compound
JNK2α2(h) = JNK2α2(h) (Homo sapiens, UniProt P45984); test: kinase panel activity, JNK2α2(h); conditions: compound at 20 μM; vs reference with no compound
PDK1(h) = PDK1(h) (Homo sapiens, UniProt O15530); test: kinase panel activity, PDK1(h); conditions: compound at 20 μM; vs reference with no compound
Ros(h) = Ros(h) (Homo sapiens, UniProt P08922); test: kinase panel activity, Ros(h); conditions: compound at 20 μM; vs reference with no compound
Snk(h) = Snk(h) (Homo sapiens, UniProt Q9NYY3); test: kinase panel activity, Snk(h); conditions: compound at 20 μM; vs reference with no compound
Snk(h), sequence (Q9NYY3 whole entry): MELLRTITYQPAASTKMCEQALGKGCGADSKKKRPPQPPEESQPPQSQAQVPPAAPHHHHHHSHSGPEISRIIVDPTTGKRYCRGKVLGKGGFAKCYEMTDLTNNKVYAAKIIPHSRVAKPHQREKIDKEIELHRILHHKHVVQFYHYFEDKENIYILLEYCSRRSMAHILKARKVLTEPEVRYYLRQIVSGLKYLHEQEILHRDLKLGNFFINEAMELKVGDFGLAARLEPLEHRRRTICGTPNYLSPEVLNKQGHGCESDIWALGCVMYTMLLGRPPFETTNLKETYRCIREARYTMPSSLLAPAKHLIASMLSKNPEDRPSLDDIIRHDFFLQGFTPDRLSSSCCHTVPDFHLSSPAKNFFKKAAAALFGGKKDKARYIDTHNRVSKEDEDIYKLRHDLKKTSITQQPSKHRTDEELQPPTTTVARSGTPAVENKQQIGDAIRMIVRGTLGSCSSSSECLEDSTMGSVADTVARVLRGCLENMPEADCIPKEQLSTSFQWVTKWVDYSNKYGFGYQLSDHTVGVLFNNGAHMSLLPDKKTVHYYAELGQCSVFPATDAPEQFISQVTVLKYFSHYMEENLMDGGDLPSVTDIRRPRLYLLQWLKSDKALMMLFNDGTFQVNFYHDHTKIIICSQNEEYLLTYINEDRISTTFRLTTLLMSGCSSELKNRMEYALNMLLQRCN

EphB2(h) = EphB2(h) (Homo sapiens, UniProt P29323); test: kinase panel activity, EphB2(h); conditions: compound at 20 μM; vs reference with no compound
IGF-1R(h) = IGF-1R(h) (Homo sapiens, UniProt P08069); test: kinase panel activity, IGF-1R(h); conditions: compound at 20 μM; vs reference with no compound
TrkB(h) = TrkB(h) (Homo sapiens, UniProt Q16620); test: kinase panel activity, TrkB(h); conditions: compound at 20 μM; vs reference with no compound
cKit(h) = cKit(h) (Homo sapiens, UniProt P10721); test: kinase panel activity, cKit(h); conditions: compound at 20 μM; vs reference with no compound
PKBα(h) = PKBα(h) (Homo sapiens, UniProt P31749); test: kinase panel activity, PKBα(h)
PKBα(h), sequence (P31749 whole entry): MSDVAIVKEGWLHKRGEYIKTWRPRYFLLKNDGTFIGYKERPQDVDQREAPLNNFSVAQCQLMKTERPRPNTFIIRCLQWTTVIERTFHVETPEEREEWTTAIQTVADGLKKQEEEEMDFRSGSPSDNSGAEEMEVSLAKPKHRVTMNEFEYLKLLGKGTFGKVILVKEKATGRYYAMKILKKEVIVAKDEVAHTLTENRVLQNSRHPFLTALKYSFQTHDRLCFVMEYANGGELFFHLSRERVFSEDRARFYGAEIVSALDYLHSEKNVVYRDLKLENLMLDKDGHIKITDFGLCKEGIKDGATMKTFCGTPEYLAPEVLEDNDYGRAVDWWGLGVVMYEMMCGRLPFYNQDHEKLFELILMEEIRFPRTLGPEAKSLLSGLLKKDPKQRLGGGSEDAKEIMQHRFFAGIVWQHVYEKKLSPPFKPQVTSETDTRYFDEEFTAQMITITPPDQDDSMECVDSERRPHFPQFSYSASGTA

SAPK2a(h) = SAPK2a(h) (Homo sapiens, UniProt Q16539); test: kinase panel activity, SAPK2a(h); conditions: compound at 20 μM; vs reference with no compound
SAPK2a(h), sequence (Q16539 whole entry): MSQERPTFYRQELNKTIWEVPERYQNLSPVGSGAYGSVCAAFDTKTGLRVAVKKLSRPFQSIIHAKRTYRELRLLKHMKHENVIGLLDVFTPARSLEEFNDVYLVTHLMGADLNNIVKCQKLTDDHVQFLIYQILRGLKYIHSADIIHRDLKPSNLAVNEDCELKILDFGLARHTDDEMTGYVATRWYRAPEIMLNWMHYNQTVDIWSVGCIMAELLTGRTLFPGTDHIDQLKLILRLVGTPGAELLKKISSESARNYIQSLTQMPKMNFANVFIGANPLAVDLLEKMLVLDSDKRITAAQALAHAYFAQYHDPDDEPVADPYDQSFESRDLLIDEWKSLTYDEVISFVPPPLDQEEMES

NLK(h) = NLK(h) (Homo sapiens, UniProt Q9UBE8); test: kinase panel activity, NLK(h); conditions: compound at 20 μM; vs reference with no compound
Fgr(h) = Fgr(h) (Homo sapiens, UniProt P09769); test: kinase panel activity, Fgr(h); conditions: compound at 20 μM; vs reference with no compound
Fgr(h), sequence (P09769 whole entry): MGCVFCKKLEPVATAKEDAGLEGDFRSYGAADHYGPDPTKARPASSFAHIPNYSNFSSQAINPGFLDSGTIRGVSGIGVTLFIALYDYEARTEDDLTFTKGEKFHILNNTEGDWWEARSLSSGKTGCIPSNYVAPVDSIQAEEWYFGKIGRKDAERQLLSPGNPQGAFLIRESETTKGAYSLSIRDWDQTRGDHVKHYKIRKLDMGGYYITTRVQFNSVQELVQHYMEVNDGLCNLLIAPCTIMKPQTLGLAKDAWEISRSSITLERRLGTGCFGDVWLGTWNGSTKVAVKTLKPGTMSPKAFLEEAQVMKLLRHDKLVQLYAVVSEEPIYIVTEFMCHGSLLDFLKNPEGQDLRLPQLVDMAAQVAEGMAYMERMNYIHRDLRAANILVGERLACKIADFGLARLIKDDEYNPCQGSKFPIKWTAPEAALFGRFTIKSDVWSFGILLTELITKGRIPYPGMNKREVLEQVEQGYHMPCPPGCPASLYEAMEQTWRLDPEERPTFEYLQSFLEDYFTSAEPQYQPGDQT

PIk3(h) = PIk3(h) (Homo sapiens, UniProt Q9H4B4); test: kinase panel activity, PIk3(h); conditions: compound at 20 μM; vs reference with no compound
PDGFRβ(h) = PDGFRβ(h) (Homo sapiens, UniProt P09619); test: kinase panel activity, PDGFRβ(h); conditions: compound at 20 μM; vs reference with no compound
cSRC(h) = cSRC(h) (Homo sapiens, UniProt P12931); test: kinase panel activity, cSRC(h); conditions: compound at 20 μM; vs reference with no compound
Pim-1(h) = Pim-1(h) (Homo sapiens, UniProt P11309); test: kinase panel activity, Pim-1(h); conditions: compound at 20 μM; vs reference with no compound
CHK1(h) = CHK1(h) (Homo sapiens, UniProt O14757); test: kinase panel activity, CHK1(h); conditions: compound at 20 μM; vs reference with no compound
Tie2(h) = Tie2(h) (Homo sapiens, UniProt Q02763); test: kinase panel activity, Tie2(h); conditions: compound at 20 μM; vs reference with no compound
IKKβ(h) = IKKβ(h) (Homo sapiens, UniProt O14920); test: kinase panel activity, IKKβ(h); conditions: compound at 20 μM; vs reference with no compound
Aurora-A(h) = Aurora-A(h) (Homo sapiens, UniProt O14965); test: kinase panel activity, Aurora-A(h); conditions: compound at 20 μM; vs reference with no compound
MAPK1(h) = MAPK1(h) (Homo sapiens, UniProt P27361); test: kinase panel activity, MAPK1(h); conditions: compound at 20 μM; vs reference with no compound
CDK2/cyclinE(h) = CDK2/cyclinE(h) (Homo sapiens, UniProt P24941); test: kinase panel activity, CDK2/cyclinE(h); conditions: compound at 20 μM; vs reference with no compound
JNK1α1(h) = JNK1α1(h) (Homo sapiens, UniProt P45983); test: kinase panel activity, JNK1α1(h); conditions: compound at 20 μM; vs reference with no compound
JNK1α1(h), sequence (P45983 1-384 isoform P45983-2): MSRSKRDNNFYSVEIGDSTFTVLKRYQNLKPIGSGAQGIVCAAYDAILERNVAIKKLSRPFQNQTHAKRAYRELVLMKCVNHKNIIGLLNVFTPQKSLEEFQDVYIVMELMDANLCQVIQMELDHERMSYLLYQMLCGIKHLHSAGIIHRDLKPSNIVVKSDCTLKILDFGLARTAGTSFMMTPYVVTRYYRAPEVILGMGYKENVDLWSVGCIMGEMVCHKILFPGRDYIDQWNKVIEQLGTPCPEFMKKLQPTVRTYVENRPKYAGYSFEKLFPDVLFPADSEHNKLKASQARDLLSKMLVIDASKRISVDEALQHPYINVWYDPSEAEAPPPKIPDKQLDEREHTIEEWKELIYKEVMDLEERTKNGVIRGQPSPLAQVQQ

LKB1(h) = LKB1(h) (Homo sapiens, UniProt Q15831); test: kinase panel activity, LKB1(h); conditions: compound at 20 μM; vs reference with no compound
LKB1(h), sequence (Q15831 whole entry): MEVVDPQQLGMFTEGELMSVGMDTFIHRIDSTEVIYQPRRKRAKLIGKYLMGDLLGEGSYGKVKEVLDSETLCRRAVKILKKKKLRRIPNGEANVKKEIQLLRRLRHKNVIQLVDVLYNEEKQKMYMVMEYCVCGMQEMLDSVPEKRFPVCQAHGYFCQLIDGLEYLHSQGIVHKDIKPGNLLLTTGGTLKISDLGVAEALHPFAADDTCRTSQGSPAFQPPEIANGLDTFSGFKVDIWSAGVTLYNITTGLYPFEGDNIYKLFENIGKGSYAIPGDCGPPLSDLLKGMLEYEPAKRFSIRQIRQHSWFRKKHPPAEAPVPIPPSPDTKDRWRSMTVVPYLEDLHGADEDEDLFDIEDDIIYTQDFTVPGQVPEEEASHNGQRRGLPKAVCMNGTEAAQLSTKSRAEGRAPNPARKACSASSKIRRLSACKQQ
LKB1(h), sequence (Q7RTN6 whole entry partner): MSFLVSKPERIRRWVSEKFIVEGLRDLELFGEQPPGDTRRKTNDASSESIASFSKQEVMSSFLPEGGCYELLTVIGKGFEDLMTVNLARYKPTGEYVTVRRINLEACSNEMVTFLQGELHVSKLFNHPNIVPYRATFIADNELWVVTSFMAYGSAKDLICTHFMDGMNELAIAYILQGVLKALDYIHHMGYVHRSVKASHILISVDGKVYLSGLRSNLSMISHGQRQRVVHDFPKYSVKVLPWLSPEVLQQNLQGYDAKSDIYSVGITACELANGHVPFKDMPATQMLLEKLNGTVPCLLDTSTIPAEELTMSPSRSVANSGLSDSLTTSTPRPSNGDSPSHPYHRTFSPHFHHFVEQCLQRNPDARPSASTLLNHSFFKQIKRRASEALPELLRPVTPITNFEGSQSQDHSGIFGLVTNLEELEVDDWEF
LKB1(h), sequence (Q9Y376 whole entry partner): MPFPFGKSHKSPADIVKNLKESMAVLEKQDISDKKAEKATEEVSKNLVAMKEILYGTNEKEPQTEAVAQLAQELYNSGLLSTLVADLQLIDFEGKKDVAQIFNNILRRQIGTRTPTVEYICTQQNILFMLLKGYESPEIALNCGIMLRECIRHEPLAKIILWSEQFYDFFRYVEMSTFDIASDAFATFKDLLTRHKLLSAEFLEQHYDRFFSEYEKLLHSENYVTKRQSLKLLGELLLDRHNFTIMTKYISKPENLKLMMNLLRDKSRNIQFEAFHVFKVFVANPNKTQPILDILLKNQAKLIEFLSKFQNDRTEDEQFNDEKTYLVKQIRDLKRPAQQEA

SAPK2a(T106M)(h) = SAPK2a(T106M)(h) (Homo sapiens, UniProt Q16539, T106M); test: kinase panel activity, SAPK2a(T106M)(h); conditions: compound at 20 μM; vs reference with no compound
SAPK2a(T106M)(h), sequence (Q16539 whole entry T106M): as the sequence (Q16539 whole entry) above, with T106M counted along it

EGFR(h) = EGFR(h) (Homo sapiens, UniProt P00533); test: kinase panel activity, EGFR(h); conditions: compound at 20 μM; vs reference with no compound
Flt1(h) = Flt1(h) (Homo sapiens, UniProt P17948); test: kinase panel activity, Flt1(h); conditions: compound at 20 μM; vs reference with no compound
[1] = compound at 20 μM, vs reference with no compound

PKBβ(h), sequence (P31751 whole entry): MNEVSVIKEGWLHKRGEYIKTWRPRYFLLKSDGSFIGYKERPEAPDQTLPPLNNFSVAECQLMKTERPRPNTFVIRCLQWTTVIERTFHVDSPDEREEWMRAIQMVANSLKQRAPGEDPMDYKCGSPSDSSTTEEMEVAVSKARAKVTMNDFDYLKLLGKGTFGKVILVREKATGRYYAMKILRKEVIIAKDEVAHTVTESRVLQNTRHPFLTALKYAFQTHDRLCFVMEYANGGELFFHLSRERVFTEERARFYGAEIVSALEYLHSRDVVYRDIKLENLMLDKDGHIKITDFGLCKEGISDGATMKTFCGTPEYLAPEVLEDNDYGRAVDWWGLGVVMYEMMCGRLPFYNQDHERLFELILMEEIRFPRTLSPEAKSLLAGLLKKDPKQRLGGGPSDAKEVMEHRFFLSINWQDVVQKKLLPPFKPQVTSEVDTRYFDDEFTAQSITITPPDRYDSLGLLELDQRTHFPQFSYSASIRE

| Compound | percent activity of PAK6(h) (PAK6(h)) [%] | percent activity of DAPK1(h) (DAPK1(h)) [%] | percent activity of CDK5/p35(h) (CDK5/p35(h)) [%] | percent activity of MEK1(h) (MEK1(h)) [%] | percent activity of SAPK2b(h) (SAPK2b(h)) [%] | percent activity of MST1(h) (MST1(h)) [%] | percent activity of SIK(h) (SIK(h)) [%] | percent activity of CDK3/cyclinE(h) (CDK3/cyclinE(h)) [%] | percent activity of GSK3α(h) (GSK3α(h)) [%] | percent activity of CDK2/cyclinA(h) (CDK2/cyclinA(h)) [%] | percent activity of JNK3(h) (JNK3(h)) [%] | percent activity of CSK(h) (CSK(h)) [%] | percent activity of JNK2α2(h) (JNK2α2(h)) [%] | percent activity of PDK1(h) (PDK1(h)) [%] | percent activity of Ros(h) (Ros(h)) [%] | percent activity of Snk(h) (Snk(h)) [%] | percent activity of EphB2(h) (EphB2(h)) [%] | percent activity of IGF-1R(h) (IGF-1R(h)) [%] | percent activity of TrkB(h) (TrkB(h)) [%] | percent activity of cKit(h) (cKit(h)) [%] | other results |
| --- | --- | --- | --- | --- | --- | --- | --- | --- | --- | --- | --- | --- | --- | --- | --- | --- | --- | --- | --- | --- | --- |
| Oc1ccc(C=Cc2cc(O)cc(O)c2)cc1 [resveratrol, 3,5,4′-trihydroxystilbene] | 103 | 71 | 77 | 110 | 100 | 75 | 76 | 75 | 79 | 80 | 98 | 94 | 110 | 108 | 102 | 81 | 113 | 75 | 98 | 68 | activity at 20 µM (PKBβ(h); read-out: percent activity of PKBβ(h)): 105%; activity at 20 µM (PKBα(h); read-out: percent activity of PKBα(h)): 94%; percent activity of SAPK2a(h) (SAPK2a(h)): 100%; percent activity of NLK(h) (NLK(h)): 30%; percent activity of Fgr(h) (Fgr(h)): 78%; percent activity of PIk3(h) (PIk3(h)): 95%; percent activity of PDGFRβ(h) (PDGFRβ(h)): 119%; percent activity of cSRC(h) (cSRC(h)): 61%; percent activity of Pim-1(h) (Pim-1(h)): 6%; percent activity of CHK1(h) (CHK1(h)): 95%; percent activity of Tie2(h) (Tie2(h)): 94%; percent activity of IKKβ(h) (IKKβ(h)): 116%; percent activity of Aurora-A(h) (Aurora-A(h)): 65%; percent activity of MAPK1(h) (MAPK1(h)): 94%; percent activity of CDK2/cyclinE(h) (CDK2/cyclinE(h)): 80%; percent activity of JNK1α1(h) (JNK1α1(h)): 89%; percent activity of LKB1(h) (LKB1(h)): 102%; percent activity of SAPK2a(T106M)(h) (SAPK2a(T106M)(h)): 102%; percent activity of EGFR(h) (EGFR(h)): 90%; percent activity of Flt1(h) (Flt1(h)): 52% |
| O=C(O)[C@H]1O[C@@H](Oc2ccc(/C=C/c3cc(O)cc(O)c3)cc2)[C@H](O)[C@@H](O)[C@@H]1O [Res 4′-Gluc, resveratrol-4-glucuronide] | 128 | 107 | 104 | 120 | 111 | 106 | 74 | 101 | 57 | 98 | 105 | 100 | 123 | 97 | 105 | 87 | 109 | 87 | 100 | 100 | percent activity of PKBβ(h) (PKBβ(h); [1]): 94%; percent activity of PKBα(h) (PKBα(h); [1]): 96%; percent activity of SAPK2a(h) (SAPK2a(h)): 107%; percent activity of NLK(h) (NLK(h)): 99%; percent activity of Fgr(h) (Fgr(h)): 67%; percent activity of PIk3(h) (PIk3(h)): 86%; percent activity of PDGFRβ(h) (PDGFRβ(h)): 119%; percent activity of cSRC(h) (cSRC(h)): 54%; percent activity of Pim-1(h) (Pim-1(h)): 31%; percent activity of CHK1(h) (CHK1(h)): 117%; percent activity of Tie2(h) (Tie2(h)): 76%; percent activity of IKKβ(h) (IKKβ(h)): 98%; percent activity of Aurora-A(h) (Aurora-A(h)): 33%; percent activity of MAPK1(h) (MAPK1(h)): 106%; percent activity of CDK2/cyclinE(h) (CDK2/cyclinE(h)): 106%; percent activity of JNK1α1(h) (JNK1α1(h)): 91%; percent activity of LKB1(h) (LKB1(h)): 95%; percent activity of SAPK2a(T106M)(h) (SAPK2a(T106M)(h)): 109%; percent activity of EGFR(h) (EGFR(h)): 106%; percent activity of Flt1(h) (Flt1(h)): 76% |
